Reference: US7217688B2, “Methods and compositions for derepression of IAP-inhibited caspase” (The Burnham Institute, priority 2005, dated 2007)
Square brackets hold non-standard residues; d marks the D form. Side chains are listed from the residue outwards. Peptide text beside a SMILES is read from it. * marks the point of attachment. X1 = CCN(CC)c1ccc2c(-c3ccc(S(=O)(=O)*)cc3S(=O)(=O)O)c3ccc(=[N+](CC)CC)cc-3oc2c1; d2Nal = N[C@H](Cc1ccc2ccccc2c1)C(=O)O; Ahx = NCCCCCC(=O)O

What was measured:
XIAP-inhibited caspase-3 = molecular target: T1, XIAP-inhibited caspase-3 (Homo sapiens, UniProt P98170); test: caspase derepression assay (XIAP-inhibited caspase-3, Ac-DEVD-AFC hydrolysis); type: biochemical; settings: for activity in the derepression assay using full length XIAP: active / inactive
T1 construct: in the derepression assay using full length XIAP; made in house; host or cells: bacteria
T1 sequence (P98170 whole entry): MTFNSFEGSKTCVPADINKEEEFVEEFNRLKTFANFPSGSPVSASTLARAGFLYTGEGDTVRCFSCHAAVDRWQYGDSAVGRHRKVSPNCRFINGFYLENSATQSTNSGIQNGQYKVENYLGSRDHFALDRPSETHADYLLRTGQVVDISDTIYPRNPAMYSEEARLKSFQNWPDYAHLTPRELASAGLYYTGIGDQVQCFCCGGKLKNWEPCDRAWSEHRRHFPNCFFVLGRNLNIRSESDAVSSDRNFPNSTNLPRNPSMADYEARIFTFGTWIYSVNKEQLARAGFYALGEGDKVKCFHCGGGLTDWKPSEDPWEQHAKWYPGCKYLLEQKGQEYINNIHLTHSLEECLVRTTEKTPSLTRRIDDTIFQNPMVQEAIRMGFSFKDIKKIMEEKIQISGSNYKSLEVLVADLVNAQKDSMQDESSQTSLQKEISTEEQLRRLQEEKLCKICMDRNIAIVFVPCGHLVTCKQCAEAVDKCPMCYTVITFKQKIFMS
Experimental: (§1) Caspase activity was assayed by release of 7-amino-4-trifluoromethyl-coumarin (AFC) from Ac-DEVD-AFC synthetic peptide using a Molecular Devices Spectromax 340 (see Zhou et al., J. Biol. Chem. 272:7797–7800 (1997)). […] The ratio of Vmax for hydrolysis of Ac-DEVD-AFC in the presence and absence of the candidate mixture was calculated and used to identify those that contain an agent that derepresses an IAP-inhibited caspase.
(§2) Screening of each mixture from the DCR390, TPI 1239 or TPI 1328 library, respectively, using the above described assay was carried out as follows. Each mixture was aliquoted in a 25 microliter volume and in duplicate to a well of a 96 well microtiter plate. […] Fluorescence of liberated AFC was immediately detected from each well for 30 minutes at 30 second intervals. The Vmax for hydrolysis of AC-DEVD-AFC from each well was measured using the softmax software package. Results of the screen for the DCR390 library are shown in Table I. Sets of mixtures having the same position fixed with different respective amino acids are arranged in 6 sections identified with the position number. […] The mixture in each section are arranged in descending order according to apparent velocity in the second column.
Briefly, recombinant proteins were produced in bacteria and purified as described, for example, in Deveraux et al., Nature 388:300–304(1997). […] Generation of fluorogenic AFC (7-amino-4-trifluoromethyl coumarin) product was measured with a spectrofluorometric plate reader in kinetic mode for 30 minutes at 37° C. using excitation and emission wavelengths of 405 nm and 510 nm, respectively. […] Control reactions lacked XIAP, and all assays were conducted in the linear range of substrate hydrolysis to avoid substrate depletion artifacts.

caspase-3 = molecular target: T2, caspase-3 (Homo sapiens, UniProt P42574); test: caspase-3 activity without XIAP (control arm of derepression assay); type: biochemical; settings: TPI 1239 library; ratio, no XIAP
T2 construct: made in house; host or cells: bacteria
T2 sequence (P42574 29-175 limits assumed): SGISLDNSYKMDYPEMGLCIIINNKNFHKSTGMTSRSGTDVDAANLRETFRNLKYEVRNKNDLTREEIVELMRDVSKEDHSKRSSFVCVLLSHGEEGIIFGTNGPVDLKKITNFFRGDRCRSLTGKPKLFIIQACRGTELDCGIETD
T2 sequence (P42574 176-277 limits assumed): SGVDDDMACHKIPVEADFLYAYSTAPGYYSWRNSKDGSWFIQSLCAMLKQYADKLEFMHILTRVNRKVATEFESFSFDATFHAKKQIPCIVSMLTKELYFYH
Experimental: as §1, §2

stability in human serum = type: in vitro ADME; settings: expected
[1] = system: NCI panel of 60 tumor cell lines; test: NCI panel of 60 tumor cell lines, protein-based colorimetric assay; set-up: species or system human; settings: 48 hours
Experimental: Selected polyphenylurea compounds were tested on the National Cancer Institute (NCI) panel of 60 tumor cell lines (see FIG. 28a and FIG. 29).

tumor tissue = test: in vivo caspase activation in tumors (immunoblot, immunohistochemistry); set-up: species or system Balb/c mice; settings: 30 mg/kg i.p. for 3 successive days
[2] = mouse, in vivo
Experimental: Selected polyphenylurea compounds were tested for anti-tumor activity in vivo, using human tumor xenografts grown in immunocompromised mice. First, it was determined what doses of polyphenylurea compounds were tolerated by mice. […] For tumor xenograft studies, PPC1 prostate cancer cells (2.5 million) were injected subcutaneously into the flanks of 8 male Balb/C nu−/nu− mice. […] Tumor growth was monitored at least twice weekly by external calipers (see FIG. 32b). At 24 days after compound injections, mice were sacrificed and tumors were excised and weighed (see FIG. 32b, inset).
Sera were assayed for BUN, bilirubin, ALT and AST.

Jurkat leukemia cells = test: Jurkat cell death (Annexin V / propidium iodide flow cytometry); type: cell-based
Experimental: The following assay was used to test the ability of individual compounds from the TPI 1396 and TPI 1391 libraries to induce apoptosis of cultured tumor cell lines. Each of the compounds listed in Table IX was individually added to Jurkat leukemia cells (6.25×10^5 cells/mL) in RPMI containing 2.5% FBS at various concentrations for 20 hours. After incubation, cells were washed and stained with FITC-conjugated Annexin V antibody and propidium iodide (Biovision; Mountain View, Calif.). Cells were incubated for 20 minutes at room temperature in the dark and fluorescence was measured by flow cytometry (FACScan, Immunocytometry system; Becton-Dickinson; San Jose, Calif.). Cells staining positive for Annexin V were deemed non-viable.

[3] = system: PC-3 and LNCaP prostate cancer cell lines; test: clonogenic survival (colony formation) assay; type: cell-based; settings: 10 μM
Experimental: In addition to short-term cytotoxicity assays, selected polyphenylurea compounds were tested for effects on clonogenic survival of cancer cells in colony formation assays, which can be considered a more stringent test of anticancer activity.

HeLa cells = test: apoptosis of transfected HeLa cells (Annexin V); type: cell-based; settings: 5 μM, 20 hours
Experimental: In addition to transfecting the cells with full-length XIAP, analogous assays were performed with HeLa cells transfected with plasmids over-expressing various XIAP mutants. […] The mutant was produced by site-directed mutagenesis to modify positions 148, 219, 223, 314 and 323 to contain alanine. HeLa cells were also transiently transfected with plasmids encoding Bcl-XL, an anti-apoptotic protein that operates upstream of caspases to suppress Cytochrome C release from mitochondria. HeLa cells (2.5×10^5) were seeded onto six well plates in 2 mL DMEM H21 with 5% FBS. After 24 hrs, cells were transfected (Gene Porter) with plasmids. […] Both floating and adherent cells were then recovered from cultures, washed, and apoptosis was determined by Annexin V staining using flow cytometry.
Bcl-XL over-expression did afford resistance to traditional anticancer drugs such as etoposide and CrmA (a caspase-8 inhibitor), and protected cells from apoptosis induced by TRAIL, confirming that these anti-apoptotic proteins were functional in these experiments.

[4] = system: normal bone marrow mononuclear cells; test: normal bone marrow cell toxicity (Annexin V); type: cell-based; settings: 5 μM, 20 hours
Experimental: After incubation, cells were washed, stained with FITC-conjugated Annexin V antibody and propidium iodide, and fluorescence measured by flow cytometry as described above.

[5] = molecular target: XIAP binding to the SMAC peptide (Homo sapiens, UniProt P98170); test: SMAC competition / SMAC binding assay (biotinylated SMAC 7-mer, GST-XIAP)
XIAP binding to the SMAC peptide, sequence (P98170 whole entry): as the sequence (P98170 whole entry) above
Experimental: Peptide compounds containing unnatural amino acids in the 792 series, 792-33 and 792-35 (see FIG. 12 and 20 and Example XI), and an active compound in the TPI 1332 series, TPI 1332-69, were tested for binding activity in the SMAC binding assay as described above in Example X. For this assay, biotinylated SMAC 7-mer peptide (50 ng) was bound to 96 well plates coated with NeutrAvidin (Pierce, Rockford, Ill.) at 1 mg/ml in 100 μl per well of 50 mM HEPES pH 7.4, 100 mM NaCl, 1 mM EDTA, 10% sucrose, 0.1% CHAPS, 10 mM DTT.

[6] = system: Du145 prostate cancer cells; test: sensitization to anticancer drugs (MTT assay); type: cell-based; settings: 10 μM, 48 hours
Experimental: The percentage of viable cells relative to control was determined using a MTT (3-(4,5-dimethylthiazolyl-2)-2,5-diphenyltetrazolium bromide) assay which is commercially available (Sigma). […] Similar results were obtained for PPC1 (FIG. 31b) and PC3 (FIG. 31c) prostate cancer cells treated with VP16, DOX, or TAXOL, and for H460 (FIG. 31d) lung cancer cells treated with VP16 or DOX.

[7] = system: HCT-116 colon cancer cells; test: HCT-116 tumor xenograft; type: in vivo, Balb/C nu-/nu- mice; settings: 30 mg/kg i.p. on days 6, 7 and 8
Experimental: Additional experiments were performed using a different tumor xenograft model. HCT-116 colon cancer cells (2.5 million) were injected subcutaneously in the flanks of female Balb/C nu−/nu− mice. […] Tumor volume was measured by external calipers at least twice weekly for 19 days (see FIG. 32c). On day 19, the mice were sacrificed and the tumors were excised and weighed.

[8] = system: mouse embryo fibroblasts (MEFs), human prostate epithelial cells, peripheral blood lymphocytes (PBLs); test: normal cell viability (annexin-V, 2 days); type: cell-based; set-up: dose or concentration left out as unconfirmed
Experimental: After 2 days, cell viability was assessed by annexin-V staining.

Jurkat cells = test: caspase-3 and caspase-7 activity in whole Jurkat cells; type: cell-based; settings: 8 μM, 20 hours
[9] = system: PPC1, ALVA31, DU145 and HeLa cells; test: sensitization to TRAIL-induced apoptosis; type: cell-based; settings: 1 µM
Experimental: Similar tests of the effects of polyphenyl urea compounds on apoptosis induction by the biological agent TRAIL, an apoptosis inducing member of the Tumor Necrosis Factor (TNF) family were also performed.

[10] = system: U937 leukemia cells over-expressing XIAP; test: U937-Neo versus U937-XIAP cell death (Annexin V); type: cell-based; settings: 5 or 8 μM, 20 hours
Experimental: After incubation, cells were washed, stained with FITC-conjugated Annexin V antibody and propidium iodide, and fluorescence measured by flow cytometry as described in Example XI.
Equal amounts of protein were subjected to SDS-PAGE (4–20% gradient gels from ISC BioExpress, Kaysville, Utah.), followed by transfer to nitrocellulose membranes. […] Secondary antibodies consisted of horseradish peroxidase (HRP)-conjugated goat anti-mouse IgG (Bio-Rad, Hercules, Calif.). Detection was performed by the enhanced chemiluminescence (ECL) method. […] Lysates were prepared from the cells, normalized for total protein content and analyzed by SDS-PAGE immunoblotting using antibodies specific for XIAP, caspase-3, and β-actin.

[11] = system: tumor cells with antigen-specific T cells; test: CTL-mediated lysis (51Cr release); type: cell-based; settings: 10 μM, 4 hours
Experimental: After 4 hours, ^51Cr release was measured. Data shown in FIG. 39 are expressed as a percentage of total release induced by detergent lysis, and data represent mean±standard deviation of duplicate determinations.

[12] = system: PPC1 prostate cancer cells; test: PPC1 tumor xenograft; type: in vivo, Balb/C nu-/nu- mice; settings: 30 mg/kg i.p. for 2 or 3 days
Description: Similar data was obtained using TPI 1396-22 (see FIG. 33a and 33b). […] In FIG. 33b, the mice were sacrificed at day 19 and the tumors excised and weighed.

His-BIR2 of XIAP = test: rhodamine fluorescence polarization competitive binding assay; settings: titrated with TPI 1396-11; labeled compound 2.4 μM, His-BIR2 79 μM; read-out: IC50 of the labeled candidate compound
Experimental: In a second assay, competitive binding of candidate derepressors of IAP inhibited caspase was measured by a fluorescence polarization procedure. Fixed quantities of rhodamine-labeled candidate compound and IAP fragment were titrated against varying concentrations of a known IAP-binding compound. […] Polarization (millipolars or mP) was plotted against log concentration (log []) of the known IAP-binding compound. A plot of mP versus log concentration of the IAP-binding compound was then used to calculate the binding constant for the candidate compound-the IAP fragment pair.
Plates were incubated for one hour at room temperature, after which polarization of rhodamine was read in an LJL Analyst HT® multimode reader with excitation at 530 nm and emission at 580 nm.

SMILES: CC[C@H](C)[C@H](NC(=O)[C@@H]1CCCN1C(=O)[C@@H](NC(=O)[C@H](C)N)C(C)C)C(=O)N[C@@H](C)C(=O)N[C@@H](CCC(N)=O)C(=O)N[C@@H](CCCCN)C(N)=O [SMAC, H-Ala-Val-Pro-Ile-Ala-Gln-Lys-NH2, reference compound] (H-AVPIAQK-NH2)
- Vmax(mis + casp3 + XIAP) Vmax(casp3 + XIAP) (XIAP-inhibited caspase-3; TPI 1239 library, ratio in the presence of XIAP): 3.8 ± 1.7
- Vmax(mix + casp3) Vmax(casp3) (caspase-3): 0.8 ± 0.0

SMILES: CN(CCCCC(CNC(=O)Nc1ccccc1)N(CC1CCCN1CCCCC1CCCCC1)C(=O)Nc1ccccc1)C(=O)Nc1ccccc1 (stereo not shown) [TPI 1396-12]
- Activity (relative caspase-3 activity, ratio of Vmax with compound to Vmax of caspase-3 and XIAP controls) (XIAP-inhibited caspase-3; Table X, R2 = L-Proline): 2.7
- activity in the derepression assay using full length XIAP (XIAP-inhibited caspase-3): active
- stable in human serum (stability in human serum): greater than 48 hours
- average LD50 for the 60 cell lines [1]: 7.6 ± 12 µM
- median LD50 for the 60 cell lines [1]: 6 µM
- caspase activation in tumors in vivo (tumor tissue): induce caspase activation in tumors in vivo
- tumor proliferation (surrogate marker PCNA) (tumor tissue): no effect on tumor proliferation
- maximum tolerated dose [2]: 200 to 400 mg/kg
- % nonviable cells (Jurkat leukemia cells; 1 µM): 15%
- % nonviable cells (Jurkat leukemia cells; 5 µM): 95%
- % nonviable cells (Jurkat leukemia cells; 10 μM): 89%
- % nonviable cells (Jurkat leukemia cells; 25 µM): 89%
- % nonviable cells (Jurkat leukemia cells; 50 µM): 85%

SMILES: COc1ccc(CCN2CCC[C@@H]2CN(C(=O)Nc2ccccc2)[C@@H](CNC(=O)Nc2ccccc2)CC2CCCCC2)cc1 [TPI 1396-34]
- colony formation [3]: < 5 % of control
- apoptosis in HeLa cells over-expressing Bcl-XL (HeLa cells): not blocked
- apoptosis in HeLa cells over-expressing full-length XIAP (HeLa cells): protected
- apoptosis in HeLa cells transfected with a control vector (HeLa cells): induced apoptosis
- toxicity to normal bone marrow cells [4]: little toxicity
- activity in the derepression assay using full length XIAP (XIAP-inhibited caspase-3): active
- competition with XIAP binding to the SMAC peptide [5]: does not compete
- effect on cytotoxicity of VP16, DOX and TAXOL [6]: significantly increased dose-dependent cytotoxicity
- tumor size [7]: tumor size was reduced
- increase of percentage cell death above background [8]: less than one-fold
- caspase activation (Jurkat cells): induced caspase activation
- effect on TRAIL-induced apoptosis [9]: sensitized
- effect of XIAP over-expression on apoptosis induction [10]: over-expression of XIAP rendered U937 cells resistant
- effect on CTL-mediated lysis [11]: sensitizes tumor targets to CTL-mediated lysis
- tumor growth / tumor size [12]: reduced tumor size
- time to half-maximal killing (Jurkat leukemia cells; 10 μM): approximately 12 hours
- time to maximum killing (Jurkat leukemia cells; 10 μM): about 24 hours
- apoptosis with 100 μM zVAD-fmk (Jurkat leukemia cells; 20 hours): suppressible

SMILES: CCN(CC)c1ccc2c(-c3ccc(S(=O)(=O)NCCCCCC(=O)NCCCC[C@H](NC(=O)[C@@H](Cc4ccc5ccccc5c4)NC(=O)[C@H](Cc4c[nH]c5ccccc45)NC(=O)[C@H](Cc4c[nH]c5ccccc45)NC(=O)[C@H](C)N)C(N)=O)cc3S(=O)(=O)O)c3ccc(=[N+](CC)CC)cc-3oc2c1 [TPI 1566-11] (H-AWW[d2Nal]K([Ahx-X1])-NH2)
- IC50 (His-BIR2 of XIAP): 10 µM
